In patent US11541055B2, “Inhibitors of human immunodeficiency virus replication” (ViiV Healthcare UK (No. 5) LIMITED, priority 2018, dated 2023):

Assays:
[1] = tested on: recombinant NL4-3 virus (Renilla luciferase) in MT-2 cells; assay: HIV cell culture assay (antiviral activity, luciferase readout); format: cell-based; conditions: Renilla, NL43
Method in brief: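 MT-2 cells were infected with recombinant NL4-3 virus carrying Renilla luciferase in place of part of nef. Cells were cultured 4–5 days with serially diluted compound, and luciferase was measured with a live-cell substrate. EC50 was calculated from the median effect equation.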

[2] = Compound cytotoxicity, XTT-based colorimetric assay; format: cell-based; conditions: human; uninfected MT2 cells, day 4, XTT
Method in brief: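 Run under the antiviral-assay protocol but without virus. Viability was read on day 4 and CC50 values were derived from the readout.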

Structure (SMILES)	EC50 [1] [nM]	CC50 at 4 days [2] [nM]
O=C(Cn1nc(C(F)F)c2c1C(F)(F)[C@@H]1C[C@H]21)N[C@@H](Cc1cc(F)cc(F)c1)c1nc2cc(-c3nccc(C(F)(F)F)n3)ccc2c(=O)n1-c1ccc(Cl)c2c(NS(=O)(=O)C3CC3)nn(CC(F)F)c12 (atropisomer, axis not shown; (P)) [Example 84, N—((S)-1-((3P)-3-(4-chloro-3-(cyclopropanesulfonamido)-1-(2,2-difluoroethyl)-1H-indazol-7-yl)-4-oxo-7-(4-(trifluoromethyl)pyrimidin-2-yl)-3,4-dihydroquinazolin-2-yl)-2-(3,5-difluorophenyl)ethyl)-2-((3bS,4aR)-3-(difluoromethyl)-5,5-difluoro-3b,4,4a,5-tetrahydro-1H-cyclopropa[3,4]cyclopenta[1,2-c]pyrazol-1-yl)acetamide]	0.22	> 500
Cn1nc(NS(C)(=O)=O)c2c(Cl)ccc(-n3c([C@H](Cc4cc(F)cc(F)c4)NC(=O)Cn4nc(C(F)F)c5c4C(F)(F)[C@@H]4C[C@H]54)nc4cc(-c5ccnc(C6CCCC6)n5)ccc4c3=O)c21 (atropisomer, axis not shown; (P)) [Example 73, N—((S)-1-((3P)-3-(4-chloro-1-methyl-3-(methylsulfonamido)-1H-indazol-7-yl)-7-(2-cyclopentylpyrimidin-4-yl)-4-oxo-3,4-dihydroquinazolin-2-yl)-2-(3,5-difluorophenyl)ethyl)-2-((3bS,4aR)-3-(difluoromethyl)-5,5-difluoro-3b,4,4a,5-tetrahydro-1H-cyclopropa[3,4]cyclopenta[1,2-c]pyrazol-1-yl)acetamide]	0.96	> 500
Cc1ccnc(-c2ccc3c(=O)n(-c4ccc(Cl)c5c(NS(C)(=O)=O)nn(C)c45)c([C@H](Cc4cc(F)cc(F)c4)NC(=O)Cn4nc(C(F)F)c5c4C(F)(F)[C@@H]4C[C@H]54)nc3c2)c1 (atropisomer, axis not shown; (P)) [Example 2, N—((S)-1-((3P)-3-(4-chloro-1-methyl-3-(methylsulfonamido)-1H-indazol-7-yl)-7-(4-methylpyridin-2-yl)-4-oxo-3,4-dihydroquinazolin-2-yl)-2-(3,5-difluorophenyl)ethyl)-2-((3bS,4aR)-3-(difluoromethyl)-5,5-difluoro-3b,4,4a,5-tetrahydro-1H-cyclopropa[3,4]cyclopenta[1,2-c]pyrazol-1-yl)acetamide]	0.059	> 500
COc1cnc(-c2ccc3c(=O)n(-c4ccc(Cl)c5c(NS(C)(=O)=O)nn(CC(F)F)c45)c([C@H](Cc4cc(F)cc(F)c4)NC(=O)Cn4nc(C(F)F)c5c4C(F)(F)[C@@H]4C[C@H]54)nc3c2)nc1 (atropisomer, axis not shown) [Example 124, N-[(1S)-1-{3-[4-chloro-1-(2,2-difluoroethyl)-3-methanesulfonamido-1H-indazol-7-yl]-7-(5-methoxypyrimidin-2-yl)-4-oxo-3,4-dihydroquinazolin-2-yl}-2-(3,5-difluorophenyl)ethyl]-2-[(2S,4R)-9-(difluoromethyl)-5,5-difluoro-7,8-diazatricyclo[4.3.0.0^2,^4]nona-1(6),8-dien-7-yl]acetamide]	0.092	> 500
Cn1nc(NS(C)(=O)=O)c2c(Cl)ccc(-n3c([C@H](Cc4cc(F)cc(F)c4)NC(=O)Cn4nc(C(F)F)c5c4C(F)(F)[C@@H]4C[C@H]54)nc4cc(-c5cccc(C(C)(C)C)n5)ccc4c3=O)c21 (atropisomer, axis not shown; (P)) [Example 35, N—((S)-1-(7-(6-(tert-butyl)pyridin-2-yl)-(3P)-3-(4-chloro-1-methyl-3-(methylsulfonamido)-1H-indazol-7-yl)-4-oxo-3,4-dihydroquinazolin-2-yl)-2-(3,5-difluorophenyl)ethyl)-2-((3bS,4aR)-3-(difluoromethyl)-5,5-difluoro-3b,4,4a,5-tetrahydro-1H-cyclopropa[3,4]cyclopenta[1,2-c]pyrazol-1-yl)acetamide]	0.97	> 500
CS(=O)(=O)Nc1nn(CC(F)F)c2c(-n3c([C@H](Cc4cc(F)cc(F)c4)NC(=O)Cn4nc(C(F)F)c5c4C(F)(F)[C@@H]4C[C@H]54)nc4cc(-c5cccc(C(F)(F)F)n5)ccc4c3=O)ccc(Cl)c12 [Example 138, N-[(1S)-1-{3-[4-chloro-1-(2,2-difluoroethyl)-3-methanesulfonamido-1H-indazol-7-yl]-4-oxo-7-(trifluoromethyppyridin-2-yl]-3,4-dihydroquinazolin-2-yl}-2-(3,5-difluorophenyl)ethyl]-2-[(2S,4R)-9-(difluoromethyl)-5,5-difluoro-7,8-diazatricyclo[4.3.0.0^2,^4]nona-1(6),8-dien-7-yl]acetamide]	0.079	> 500
COc1ccc(-c2ccc3c(=O)n(-c4ccc(Cl)c5c(NS(=O)(=O)C6CC6)nn(CC(F)F)c45)c([C@H](Cc4cc(F)cc(F)c4)NC(=O)Cn4nc(C(F)F)c5c4C(F)(F)[C@@H]4C[C@H]54)nc3c2)nn1 (atropisomer, axis not shown; (P)) [Example 90, N—((S)-1-((3P)-3-(4-chloro-3-(cyclopropanesulfonamido)-1-(2,2-difluoroethyl)-1H-indazol-7-yl)-7-(6-methoxypyridazin-3-yl)-4-oxo-3,4-dihydroquinazolin-2-yl)-2-(3,5-difluorophenyl)ethyl)-2-((3bS,4aR)-3-(difluoromethyl)-5,5-difluoro-3b,4,4a,5-tetrahydro-1H-cyclopropa[3,4]cyclopenta[1,2-c]pyrazol-1-yl)acetamide]	0.085	> 500
COc1cc(C)nc(-c2ccc3c(=O)n(-c4ccc(Cl)c5c(NS(C)(=O)=O)nn(C)c45)c([C@H](Cc4cc(F)cc(F)c4)NC(=O)Cn4nc(C(F)F)c5c4C(F)(F)[C@@H]4C[C@H]54)nc3c2)c1 (atropisomer, axis not shown; (P)) [Example 57, N—((S)-1-((3P)-3-(4-chloro-1-methyl-3-(methylsulfonamido)-1H-indazol-7-yl)-7-(4-methoxy-6-methylpyridin-2-yl)-4-oxo-3,4-dihydroquinazolin-2-yl)-2-(3,5-difluorophenyl)ethyl)-2-((3bS,4aR)-3-(difluoromethyl)-5,5-difluoro-3b,4,4a,5-tetrahydro-1H-cyclopropa[3,4]cyclopenta[1,2-c]pyrazol-1-yl)acetamide]	0.15	> 500
Cc1nc(C)c(F)c(-c2ccc3c(=O)n(-c4ccc(Cl)c5c(NS(C)(=O)=O)nn(C)c45)c([C@H](Cc4cc(F)cc(F)c4)NC(=O)Cn4nc(C(F)F)c5c4C(F)(F)[C@@H]4C[C@H]54)nc3c2)n1 (atropisomer, axis not shown) [Example 119, N-[(1S)-1-[3-(4-chloro-3-methanesulfonamido-1-methyl-1H-indazol-7-yl)-7-(5-fluoro-2,6-dimethylpyrimidin-4-yl)-4-oxo-3,4-dihydroquinazolin-2-yl]-2-(3,5-difluorophenyl)ethyl]-2-[(2S,4R)-9-(difluoromethyl)-5,5-difluoro-7,8-diazatricyclo[4.3.0.0^2,^4]nona-1(6),8-dien-7-yl]acetamide]	0.087	> 500
CN(c1cccc(-c2ccc3c(=O)n(-c4ccc(Cl)c5c(NS(=O)(=O)C6CC6)nn(CC(F)F)c45)c([C@H](Cc4cc(F)cc(F)c4)NC(=O)Cn4nc(C(F)F)c5c4C(F)(F)[C@@H]4C[C@H]54)nc3c2)c1)S(C)(=O)=O (atropisomer, axis not shown) [Example 148, N-[(1S)-1-{3-[4-chloro-3-cyclopropanesulfonamido-1-(2,2-difluoroethyl)-1H-indazol-7-yl]-7-[3-(N-methylmethanesulfonamido)phenyl]-4-oxo-3,4-dihydroquinazolin-2-yl}-2-(3,5-difluorophenyl)ethyl]-2-[(2S,4R)-9-(difluoromethyl)-5,5-difluoro-7,8-diazatricyclo[4.3.0.0^2,^4]nona-1(6),8-dien-7-yl]acetamide]	0.28	> 500
Cc1nccc(-c2ccc3c(=O)n(-c4ccc(Cl)c5c(NS(C)(=O)=O)nn(C)c45)c([C@H](Cc4cc(F)cc(F)c4)NC(=O)Cn4nc(C(F)F)c5c4C(F)(F)[C@@H]4C[C@H]54)nc3c2)n1 [Example 10, N—((S)-1-((3P)-3-(4-chloro-1-methyl-3-(methylsulfonamido)-1H-indazol-7-yl)-7-(2-methylpyrimidin-4-yl)-4-oxo-3,4-dihydroquinazolin-2-yl)-2-(3,5-difluorophenyl)ethyl)-2-((3bS,4aR)-3-(difluoromethyl)-5,5-difluoro-3b,4,4a,5-tetrahydro-1H-cyclopropa[3,4]cyclopenta[1,2-c]pyrazol-1-yl)acetamide]	0.042	> 500
CS(=O)(=O)Nc1nn(CC(F)F)c2c(-n3c([C@H](Cc4cc(F)cc(F)c4)NC(=O)Cn4nc(C(F)F)c5c4C(F)(F)[C@@H]4C[C@H]54)nc4cc(-c5nccc(C(F)F)n5)ccc4c3=O)ccc(Cl)c12 (atropisomer, axis not shown) [Example 132]	0.06	> 500
COc1ccc(-c2ccc3c(=O)n(-c4ccc(Cl)c5c(NS(C)(=O)=O)nn(CC(F)(F)F)c45)c([C@H](Cc4cc(F)cc(F)c4)NC(=O)Cn4nc(C(F)F)c5c4C(F)(F)[C@@H]4C[C@H]54)nc3c2)nn1 (atropisomer, axis not shown) [Example 110, N-[(1S)-1-{3-[4-chloro-3-methanesulfonamido-1-(2,2,2-trifluoroethyl)-1H-indazol-7-yl]-7-(6-methoxypyridazin-3-yl)-4-oxo-3,4-dihydroquinazolin-2-yl}-2-(3,5-difluorophenyl)ethyl]-2-[(2S,4R)-9-(difluoromethyl)-5,5-difluoro-7,8-diazatricyclo[4.3.0.0^2,^4]nona-1(6),8-dien-7-yl]acetamide]	0.071	> 500
